Common to all, as to assay type: in vivo, mouse (Balb/c female)
One assay concerns MHC Class I. The assay is described as follows: Splenocyte cell surface density/distribution (FACS): MHC Class I. The protocol: (§1) One group of 4 unstimulated Balb/c female mice is injected with PBS (Group A). Another (Group B) is injected with 20 μg (±) methyl 11α,16-dihydroxy-16-methyl-9-oxoprosta-5Z,13E-dien-1-oate as in Example 13. […] A 3 cm incision is made with a scalpel above the left hip, and the spleen is cut free from adjoining tissue and placed in a 100 mn plastic culture dish containing 10 ml PBS. The splenic cells are then made into a suspension, by rubbing the spleens between the rough, frosted ends of microscope slides repeatedly until the only remaining particulate matter is connective tissue. Cells are transferred to a 15 ml conical polystyrene tube and centrifuged in a centrifuge at 1200 rpm for 5 minutes. The supernatant is discarded by aspiration and the cell pellet is resuspended in 10 ml PBS, then centrifuged at 1200 rpm for 5 minutes. The supernatant is aspirated and the cell pellet is resuspended in 15 mM Tris, 140 mM Ammonium Chloride, to lyse red blood cells. After incubating at room temperature for 10 minutes the cell suspension is centrifuged at 1200 rpm for 10 minutes. The supernatant is discarded and the cell pellet is resuspended in 10 ml FACS Buffer (PBS containing 0.1% BSA and 0.1% Sodium Azide). The cell suspension is filtered through sterile glass wool plugged in the top of a pasteur pipet. Cells in the flow through are counted using a hemacytometer, then the cell suspension is centrifuged at 1200 rpm for 5 minutes. The supernatant is discarded and the cell pellet is resuspended in a volume of FACS Buffer that will yield 4×10^7 cells/ml. 10 μl (4×10^5 cells) is added to each well of a 96-well V-bottom plate. 25 μl of diluted monoclonal antibody directed against splenocyte cell surface proteins is added to each well: Major Histocompatability Complex (MHC) Class II (M5114, ATCC, Rockville Md.), MHC Class I (M1/42, ATCC), Anti-IgD (JA12.5, ATCC, Rockville, Md.), Thymocyte (Thy)-1 (JIJ, ATCC), B220 (14.8, ATCC), Kappa light chain (187, ATCC), IL-2 Receptor (7D4, ATCC), Lyt-1 (7.313, ATCC) and CD23 (biotinylated B3B4) and incubated on ice for 30 minutes. 100 μl 10% BSA 0.1% sodium azide is added to each well, then the plates are centrifuged at 1200 rpm for 10 minutes. The liquid is removed by aspiration and the cell pellets are resuspended in 100 μl FACS Buffer, and centrifuged at 1200 rpm for 5 minutes. […] Samples are transferred to individual tubes and 10,000 cells are analyzed. Using the Lysis software (Becton Dickinson, Mountain View, Calif.) the mean channel log fluorescence and percent positive cells are determined for the entire cell population. […]

The next assay concerns IgD. The assay is described as follows: Splenocyte cell surface density/distribution (FACS): IgD. The protocol:
as §1

For another assay, the system named is B220. The assay is described as follows: Splenocyte cell surface density/distribution (FACS): B220.
The test system of the next assay is CD23. The assay is described as follows: Splenocyte cell surface density/distribution (FACS): CD23. The protocol: as §1
Setting [1] is: anti-IgD stimulated mice, 20 μg days 3 and 4, day 7 (PBS 107).

We go through 1 compound from US5157052A, “Method for inhibiting IgE production” (priority 1990, dated 1992).

The structures appear in SMILES notation.

As for `CCCCC(C)(O)C/C=C/[C@H]1[C@H](O)CC(=O)[C@@H]1C/C=C\CCCC(=O)OC` (mixture of isomers) [(±) methyl 11α,16-dihydroxy-16-methyl-9-oxoprosta-5Z,13E-dien-1-oate], the “Percentage Positive Cells” value in the assay with MHC Class I (anti-IgD stimulated mice, 20 μg days 3 and 4, day 7 (PBS 48.5)) is given as 59.4 ± 5.4%; with MHC Class I (unstimulated mice, 20 μg (PBS 57.8)) it was 79 ± 16%; in the assay with IgD (anti-IgD stimulated mice, 20 μg days 3 and 4, day 7 (PBS 21.9)), 15.6 ± 8.4%; in the assay with IgD (unstimulated mice, 20 μg (PBS printed 1.4)) it was 51.8 ± 3.7%; in the assay with B220 (anti-IgD stimulated mice, 20 μg days 3 and 4, day 7 (PBS 49.3)), 61.2 ± .9%; in the assay with B220 (unstimulated mice, 20 μg (PBS 49.6)), 50.6 ± 4.6%. The “Percentage Positive Cells” value in the assay with CD23 (anti-IgD stimulated mice, 20 μg days 3 and 4, day 7 (PBS 20.4)) amounted to 11.6 ± 1.6%; in the assay with CD23 (unstimulated mice, 20 μg (PBS 46.6)) it was 44.2 ± 6.6%. Besides, the “Mean Channel Log Fluorescence” value with MHC Class I (anti-IgD stimulated mice, 20 μg days 3 and 4, day 7 (PBS 113)) amounted to 121 ± 15; with MHC Class I (unstimulated mice, 20 μg (PBS 112)) it was 113 ± 2; with IgD (setting [1]), 98 ± 0.5; in the assay with IgD (unstimulated mice, 20 μg (PBS 130)) it was 132 ± 3.5; with B220 (setting [1]), 112 ± 4; in the assay with B220 (unstimulated mice, 20 μg (PBS 104)) it was 105 ± 2.5. Moreover, the “Mean Channel Log Fluorescence” value in the assay with CD23 (anti-IgD stimulated mice, 20 μg days 3 and 4, day 7 (PBS 99)) is given as 95 ± 1.5; in the assay on CD23 (unstimulated mice, 20 μg (PBS 95)), 94 ± 3.2.
